What was measured:
[1] = test system: male and female Sprague-Dawley rats; assay: Experiment 1: chronic treatment of male and female rats, 4 weeks; assay type: in vivo, rat; conditions: mean ± SEM; for Food intake: 2.5 ug/g of body weight daily injection; for Food intake / Food intake (g): n = 5
Protocol: Twenty-five male and 25 female Sprague-Dawley rats, 9-10 weeks of age, were randomly assigned to groups of five animals, respectively, as a control group (no treatment) (C), for treatment with vehicle only (V), estradiol (E), (±)-Z-BDDA, or (+)-Z-BDDA. Each animal in group V received a daily 0.1 cc injection of a 10% ethanol-90% olive oil solution; the other treatments received their respective compound as a daily 0.1 cc injection, e.g., 2.5 μg of compound/g of body weight, in a 10% ethanol-90% olive oil solution. A temperature of 21° C. and an artificial 12-h light-dark cycle was maintained in the animal room. All animals were maintained on standard chow in powdered form for four weeks, then sacrificed after an overnight fast under i.p. pentobarbital anesthesia (50 mg/kg). Animal weight and food intake were measured weekly during the study, and the subsequent food-efficiency ratio [FER(g of weight change/g of food intake)] was determined. During sacrifice, blood was collected (via cardiac puncture) for cholesterol measurements. Immediately following sacrifice the fat pads and reproductive organs were removed and weighed.
(§1) Experiments 1 and 2 employed a randomized design. All data were analyzed by one-way analysis of variance (ANOVA,)and post-hoc comparisons were made with Tukey pairwise comparisons test. Significance was confirmed at p≦0.05 (SYSTAT 7.0, SPSS INC., 1997), and all values are reported as means±standard error of the mean.

female mice = conditions: E2 5 g/animal/day, (±)-Z-BDDA 5, 50, and 500 g/animal/day, versus control group; cited from earlier work
[2] = test system: male and female Wistar rats; assay: Experiment 2: chronic treatment of male and female rats, 5-6 weeks; assay type: in vivo, rat; conditions: for Food intake: n = 5; for testosterone: compared to the vehicle
Protocol: Twenty-five male and 25 female Wistar rats, 7-8 weeks of age, were randomly assigned to groups of five animals, respectively, for treatment with vehicle only (V), estradiol (E), (±)-Z-BDDA, (+)-Z-BDDA, or (−)-Z-BDDA. Each animal in group V received a daily 0.1 cc injection of a 10% ethanol-90% olive oil solution; the other treatments received their respective compound as a daily 0.1 cc injection, e.g., 2.5 μg of compound/g of body weight, in a 10% ethanol-90% olive oil solution. A temperature of 21° C. and an artificial 12-h light-dark cycle were maintained in the animal room. All animals were maintained on standard chow in powdered form, the males for five weeks and the females for six weeks, then sacrificed after an overnight fast under i.p. pentobarbital anesthesia (50 mg/kg). Animal weight and food intake were measured weekly during the study and subsequent FER values were determined. During sacrifice, blood was collected (via cardiac puncture) for glucose, luteinizing hormone, prolactin and testosterone measurements. The amounts of luteinizing hormone, prolactin and testosterone were measured to help elucidate the target tissue of the respective compounds in male and female rats. Immediately following sacrifice the fat pads and reproductive organs were removed and weighed.
as §1

[3] = test system: estrogen receptors ERα and ERβ; conditions: direct receptor binding assays or dose-response profiles of estrogen-responsive reporter genes in cell culture; cited from earlier work
[4] = female rats (uterus), 2.5 ug/g of body weight daily
[5] = female rats, 2.5 ug/g of body weight daily, g of weight change/g of food intake
[6] = female rats, 2.5 ug/g of body weight daily
[7] = male rats (testis), 2.5 ug/g of body weight daily
[8] = male rats, 2.5 ug/g of body weight daily
[9] = female rats (uterus), 2.5 ug/g of body weight daily, six weeks, mean ± SEM
[10] = female rats, 2.5 ug/g of body weight daily, six weeks, mean ± SEM
[11] = male rats (testis), 2.5 ug/g of body weight daily, five weeks, mean ± SEM
[12] = male rats, 2.5 ug/g of body weight daily, five weeks, mean ± SEM

Structure (SMILES) | Food intake ([1]; female rats) [g] | FER (food efficiency ratio) [1, 5] | Cholesterol (mg/dl) [1, 6] | Visceral fat (g) [1, 6] | Uterus/testis weight (g) [1, 7] | Cholesterol (mg/dl) [1, 8] | FER (food efficiency ratio) [1, 8] | Prostate weight (g) [1, 8] | Visceral fat (g) [1, 8] | Food intake (g) [1, 8] | Uterus/testis weight (g) [2, 9] | Blood glucose [2, 10] [mg/dL] | FER (food efficiency ratio) [2, 10] | Food intake [2, 10] [g] | Uterus/testis weight (g) [2, 11] | testosterone ([2]; male rats, 2.5 μg/g daily) | FER (food efficiency ratio) [2, 12] | Food intake [2, 12] [g] | further results
C[C@]12CCC3c4ccc(O)cc4CCC3[C@@H]1CCC2O (single isomer, unassigned; (+)) [estradiol, (+)-17β-estradiol, reference compound] | 371.6 ± 17.8 | 0.035 ± 0.011 | 44.9 ± 15.8^1 mg/dl | 0.8 ± 0.1^1 g | 0.94 ± 0.13^1,2 g | 51.5 ± 9.5^1,2 mg/dl | −0.057 ± 0.012^1,2 | 0.09 ± 0.01^1,2 g | 4.2 ± 0.4^2 g | 298.2 ± 18.8^1 g | 4.83 ± 1.30^1 g | 100.80 ± 10.22 | 0.039 ± 0.004 | 699.6 ± 33.7 | 0.74 ± 0.04^1 g | significant (p<0.05) testosterone suppression | 0.00 ± 0.01^1 | 590.4 ± 47.7 | Uterus/testis weight [1, 4]: 1.58 ± 0.15 g; rate of weight gain (female mice): increased; Blood glucose [2, 12]: 108.00 ± 10.90 mg/dL; Prostate weight [2, 12]: 0.06 ± 0.02 g; body weight (percent weight change) ([2]; male rats, both experiments (FIGS. 2 and 3), 2.5 μg/g daily): dramatic reduction in body weight
CC[C@H]1c2ccc3cc(O)ccc3c2CC[C@@]1(C)C(=O)O [(+)-Z-BDDA, (+)-Z-bisdehydrodoisynolic acid] | 315.2 ± 18.4 | 0.045 ± 0.017^4 | 35.1 ± 8.6^1 mg/dl | 2.1 ± 0.3^1,3 g | 0.84 ± 0.06^1,2 g | 24.6 ± 2.2^1,2,3 mg/dl | −0.174 ± 0.027^1,2,3,4 | 0.13 ± 0.04^1,2,3 g | 5.1 ± 0.2^2 g | 326.0 ± 9.5^1 g | 4.02 ± 0.91^1 g | 89.60 ± 6.15 | 0.026 ± 0.008^1 | 693.6 ± 72.3 | 0.61 ± 0.02^1 g | significant (p<0.05) testosterone suppression | −0.02 ± 0.01^1 | 676.0 ± 33.2 | Uterus/testis weight (g) [1, 4]: 2.57 ± 0.79^1,2 g; binding affinity for estrogen receptors [3]: even lower than that of the (−) enantiomer; Blood glucose (mg/dl) [2, 12]: 94.00 ± 10.18^1 mg/dl; Prostate weight (g) [2, 12]: 0.02 ± 0.00^1 g

— patent publication US6608111B1, “Method for treating or preventing prostatic conditions” (Southern Illinois University Office of Research, …, priority 1998, dated 2003)
